Reference: patent publication US20250345439A1, “CHONDROITIN SULFATE BIOGENIC POLYAMINE COMPLEX, PREPARATION METHOD THEREOF AND USE THEREOF” (priority 2022, published 2025)

System: rat rheumatoid arthritis model
[1] = venous blood, day 14 after administration

For CN(Cc1cnc2nc(N)nc(N)c2n1)c1ccc(C(=O)N[C@@H](CCC(=O)O)C(=O)O)cc1 [MTX, methotrexate], the “degrees of swelling in the toes of rats” value (CSX of Example 2 200 mg/kg gavage daily, MTX 0.2 mg/kg gavage every other day) was “showed the desired effect of inhibiting toe swelling”, the “CT of ankle joint parts of rats” value (CSX of Example 2, MTX positive control) was “the degree of joint injury was more serious than that in the rats of the drug group (CSX)” and the “bone surface (BS) of the ankle joint” value (CT) was “decreased significantly”. For the same compound, the “absolute leukocyte count vs model group” value [1] was “no statistical difference”, the “absolute lymphocyte count vs model group” value [1] was “significantly decreased” and the “absolute neutrophil count vs model group” value [1] was “significantly decreased”.
